# Results reported in article PMC2746433 (Biochemistry, 2009).
# Where two headings read alike, the source gives them in different places. Residues, ends and D or L forms follow the SMILES beside them. No end group written: not given here. fluorescein = fluorescein (label on the N-terminus)
# Legend:
# [1] = molecular target: ExoI/SSB/ssDNA ternary complex (Escherichia coli, UniProt P04995); assay: Exonuclease assay: inhibition of SSB-stimulated ExoI nuclease activity; assay type: biochemical, E. coli
# E. coli ExoI = E. coli ExoI (Escherichia coli, UniProt P04995); assay: Peptide competition-binding assay
# [2] = molecular target: T1, E. coli Exonuclease I (E. coli) (UniProt P04995); assay: fluorescence polarisation
# T1 sequence: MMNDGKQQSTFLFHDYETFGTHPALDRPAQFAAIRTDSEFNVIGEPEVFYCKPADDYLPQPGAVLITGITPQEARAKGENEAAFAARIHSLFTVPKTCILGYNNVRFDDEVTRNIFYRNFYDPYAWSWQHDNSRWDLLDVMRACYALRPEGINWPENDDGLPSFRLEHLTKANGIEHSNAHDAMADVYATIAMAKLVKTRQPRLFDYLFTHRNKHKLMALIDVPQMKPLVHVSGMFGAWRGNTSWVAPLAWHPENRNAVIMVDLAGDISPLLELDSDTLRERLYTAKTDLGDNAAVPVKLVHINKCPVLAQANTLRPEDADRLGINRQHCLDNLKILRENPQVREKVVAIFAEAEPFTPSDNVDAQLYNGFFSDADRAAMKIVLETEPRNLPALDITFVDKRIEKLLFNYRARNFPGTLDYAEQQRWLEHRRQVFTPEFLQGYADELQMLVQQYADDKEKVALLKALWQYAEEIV
# E. coli Exonuclease I [3] = molecular target: T2, E. coli Exonuclease I (E. coli, UniProt P04995 1-475); assay: fluorescence polarisation
# T2 sequence (looked up): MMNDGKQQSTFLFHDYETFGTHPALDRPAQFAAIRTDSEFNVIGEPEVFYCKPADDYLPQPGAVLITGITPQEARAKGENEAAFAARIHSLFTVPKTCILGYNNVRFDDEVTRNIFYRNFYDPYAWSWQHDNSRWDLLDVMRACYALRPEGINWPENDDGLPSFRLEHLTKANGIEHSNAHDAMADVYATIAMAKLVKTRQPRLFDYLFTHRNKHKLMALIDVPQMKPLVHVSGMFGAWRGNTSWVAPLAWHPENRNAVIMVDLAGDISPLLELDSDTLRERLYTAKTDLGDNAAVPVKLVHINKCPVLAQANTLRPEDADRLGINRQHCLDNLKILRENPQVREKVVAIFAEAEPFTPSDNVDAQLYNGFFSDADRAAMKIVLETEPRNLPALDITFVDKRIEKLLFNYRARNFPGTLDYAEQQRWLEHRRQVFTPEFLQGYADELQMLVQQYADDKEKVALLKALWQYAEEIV
# E. coli Exonuclease I [4] = molecular target: T2, E. coli Exonuclease I; assay: fluorescence polarisation; remark: listed apart in the source
# E. coli Exonuclease I [5] = molecular target: T2, E. coli Exonuclease I
Molecule,IC50 [1] [µM],IC50 (E. coli ExoI) [µM],K_(bind) (apparent inhibitor dissociation constant) (E. coli Exonuclease I [3]) [µM],other results
CC[C@H](C)[C@H](NC(=O)[C@@H](N)Cc1c[nH]c2ccccc12)C(=O)N1CCC[C@H]1C(=O)N[C@@H](Cc1ccccc1)C(=O)O [WIPF] (H-WIPF-OH),> 100,252 ± 12,,
SSB-Ct Phe-to-Tyr variant peptide …,,,,IC50 [2]: 382 µM; K (bind) (apparent inhibitor dissociation constant) [2]: 79 µM
SSB-Ct Pro-to-Ser variant peptide …,,,,IC50 [2]: 52.9 µM; K (bind) (apparent inhibitor dissociation constant) [2]: 10.8 µM
WDDDIPF [WDDDIPF],~40,,,
WDDIPF [WDDIPF],~40,,,
WDFDDDIPF [WDFDDDIPF],~1,,,
"WDIPF [WDIPF, Trp-Asp-Ile-Pro-Phe]",> 100,,,
WFDDDIPF [WFDDDIPF],~10,,,
WMAFAAAIPF [WMAFAAAIPF],~20,169 ± 15,,
WMAFDDDIPF [WMAFDDDIPF],~1,11.6 ± 0.9,,
WMDFADDIPF [WMDFADDIPF],~1,8.5 ± 0.3,,
WMDFDADIPF [WMDFDADIPF],~1,6.7 ± 0.3,,
WMDFDDAIPF [WMDFDDAIPF],~1,9.3 ± 0.3,,
WMDFDDD [WMDFDDD],~40,> 1000,,
WMDFDDDI [WMDFDDDI],~40,> 1000,,
WMDFDDDIP [WMDFDDDIP],~40,> 1000,,
"WMDFDDDIPF [WMDFDDDIPF, Trp-Met-Asp-Phe-Asp-Asp-Asp-Ile-Pro-Phe]",~1,,,
WMDFDDDIPY [WMDFDDDIPY],~10,382 ± 41,,
WMDFDDDISF [WMDFDDDISF],~10,52.9 ± 3.5,,
WMDFDDDIP [SSB-Ct C-terminal truncation peptide WMDFDDDIP],,,> 200,
WDDIPF [SSB-Ct N-terminal truncation peptide WDDIPF],,,6.8 ± 0.1,IC50 (E. coli Exonuclease I [3]): 33.5 ± 2.6 µM
WMDFDDDI [SSB-Ct C-terminal truncation peptide WMDFDDDI],,,> 200,
WDFDDDIPF [SSB-Ct N-terminal truncation peptide WDFDDDIPF],,,0.7 ± 0.1,IC50 (E. coli Exonuclease I [3]): 4.3 ± 0.1 µM
WIPF [SSB-Ct N-terminal truncation peptide WIPF],,,,K (bind) (apparent inhibitor dissociation constant) [2]: 52 µM
fluorescein-WMDFDDDIPF [F-SSB-Ct (SSB-Ct with an N-terminal fluorescein)],,,,Kd (E. coli Exonuclease I [4]): 0.261 ± 0.022 µM; Kd (E. coli Exonuclease I [5]): 0.178 ± 0.01 µM
WMDFDDD [SSB-Ct C-terminal truncation peptide WMDFDDD],,,> 200,
WDDDIPF [SSB-Ct N-terminal truncation peptide WDDDIPF],,,5.1 ± 0.8,IC50 (E. coli Exonuclease I [3]): 25.3 ± 0.9 µM
WMDFDDDIPF [SSB-Ct peptide WMDFDDDIPF (wild type)],,,0.9 ± 0.1,IC50 (E. coli Exonuclease I [3]): 5.2 ± 0.2 µM
WFDDDIPF [SSB-Ct N-terminal truncation peptide WFDDDIPF],,,2.3 ± 0.1,IC50 (E. coli Exonuclease I [3]): 12.1 ± 0.7 µM
WDIPF [SSB-Ct N-terminal truncation peptide WDIPF],,,16.2 ± 0.6,IC50 (E. coli Exonuclease I [3]): 79.1 ± 2.9 µM
